Experimental data: patent US20230382920A1, “SHMT Inhibitors” (The Trustees of Princeton University, priority 2020, published 2023)

Legend:
HCT116 [1] = assay: HCT116 formate rescue assay (with sodium formate 1 mM); assay type: cell-based; settings: HCT116 growth
Description: (§1) Example 5. HCT116 Growth Inhibition and Formate Rescue Assays
(§2) 3,000 Cells were plated in each well of a 96-well plate with 80 μL of DMEM media supplemented with 10% dFBS, and incubated for 24 hours. Drugs with or without sodium formate (1 mM) were then added to each well to a final volume of 100 μL. Cell growth was measured as fluorescence intensity by resazurin after four days. In short, resazurin was added to each well to a final concentration of 10 μg·mL^−1. After incubation for one hour, fluorescence was measured by a Synergy HT plate reader (BioTek Instruments).

HCT116 [2] = assay: HCT116 growth inhibition assay; assay type: cell-based; settings: without formate
Description: as §1, §2

[3] = Mouse liver microsome assay (metabolic stability); assay type: in vitro ADME; settings: mouse liver microsomes; for half-life at 2 µM: in vitro half-life; for microsomal CLint at 2 µM: in vitro intrinsic clearance, read-out: Relative Clint
Description: Example 6. Mouse Liver Microsome Assay
Metabolic stability of several compounds in mouse liver microsomes was tested. Briefly, a master solution was prepared according to Table 31.
Two separate experiments were performed: an experiment with cofactors and an experiment without cofactors. In the experiment with cofactors 40 μL of 10 mM NADPH and 40 μL of 20 mM UDPGA were added to the incubations. The final concentrations of microsomes, NADPH and UDPGA were 0.5 mg/mL, 1 mM and 2 mM, respectively. In the experiment without cofactors 10 μL of 20 mg/mL liver microsomes and 80 μL of ultra-pure H2O were added to the incubations. The final concentration of microsomes was 0.5 mg/mL. The mixture was pre-warmed at 37° C. for 5 minutes.
The reaction was started with the addition of 4 μL of 200 μM control compound or test compound solutions. Verapamil was used as positive control in this study. The final concentration of test compound was 2 μM and the final concentration of control compound was 1 μM. The incubation solution was incubated in water bath at 37° C.
Aliquots of 50 μL were taken from the reaction solution at 0.5, 5, 15, 30, 45 and 60 minutes. The reaction was stopped by the addition of five volumes of cold acetonitrile with IS (100 nM alprazolam, 200 nM caffeine and 100 nM tolbutamide). Samples were centrifuged at 3,220 g for 40 minutes. Aliquot of 100 μL of the supernatant was mixed with 100 μL of ultra-pure H2O and then subject to LC-MS/MS analysis.
All calculations were carried out using Microsoft Excel. Peak areas were determined from extracted ion chromatograms. The slope value, k, was determined by linear regression of the natural logarithm of the remaining percentage of the parent drug versus incubation time curve. The in vitro half-life (in vitro t½) was determined from the slope value:
Conversion of the in vitro t1/2(min) into the in vitro intrinsic clearance (in vitro CLint, in μL/min/mg protein) was done using the following equation (mean of duplicate determinations): […]

Structure (SMILES)	IC50 (HCT116 [1]; Homo sapiens, HCT-116, 96 h)	IC50 (HCT116 [2])	half-life at 2 µM [3]	microsomal CLint at 2 µM [3]	IC50 (HCT116 [1])
Cc1n[nH]c2c1C(c1cc(C#C[C@@H]3C[C@H]3CO)cc(CO)c1)(C(C)C)C(C#N)=C(N)O2 (some centres unmarked) [KDG-0136]	> 5 µM	C″	10 to 20 min	≤ 70 µL/min/mg	
Cc1n[nH]c2c1C(c1cc(C#C[C@H]3C[C@@H](C(C)(C)O)C3)cc(C(C)(C)O)c1)(C(C)C)C(C#N)=C(N)O2 (some centres unmarked) [KDG-0261-100]	> 5 µM	C″	< 5 min	> 250 µL/min/mg	
Cc1n[nH]c2c1C(c1cc(C#C[C@H]3C[C@H](COC(N)=O)C3)cc(C(C)(C)O)c1)(C(C)C)C(C#N)=C(N)O2 (some centres unmarked) [KDG-0262]		C″	< 5 min		
Cc1n[nH]c2c1C(c1cc(C#C[C@H]3C[C@H](C(=O)N(C)C)C3)cc(CO)c1)(C(C)C)C(C#N)=C(N)O2 (some centres unmarked) [KDG-0265]		C″	5 to 10 min		
Cc1n[nH]c2c1C(c1cc(C#C[C@H]3CC[C@@](C)(O)CC3)cc(CO)c1)(C(C)C)C(C#N)=C(N)O2 (some centres unmarked) [KDG-0270]		B″	< 5 min		
Cc1n[nH]c2c1C(c1cc(C#CC3CCOCC3)cc(CO)c1)(C(C)C)C(C#N)=C(N)O2 (centres unmarked) [KDG-0273]		B″	< 5 min		
Cc1n[nH]c2c1C(c1cc(C#CC3CCCN3C(=O)OC(C)(C)C)cc(CO)c1)(C(C)C)C(C#N)=C(N)O2 (centres unmarked) [KDG-0280]	> 5 µM	B″	< 5 min	> 250 µL/min/mg	
Cc1n[nH]c2c1C(c1cc(C#CC3CCN(C(=O)OC(C)(C)C)CC3)cc(CO)c1)(C(C)C)C(C#N)=C(N)O2 (centres unmarked) [KDG-0289]	< 0.1 µM	A″	5 to 10 min	100 to 250 µL/min/mg	
Cc1n[nH]c2c1C(c1cc(C#CC3(C)CCN(C(=O)OC(C)(C)C)CC3)cc(CO)c1)(C(C)C)C(C#N)=C(N)O2 (centres unmarked) [KDG-0296]	< 0.1 µM	C″	5 to 10 min	100 to 250 µL/min/mg	
Cc1n[nH]c2c1C(c1cc(C#CC3(F)CCN(C(=O)OC(C)(C)C)CC3)cc(CO)c1)(C(C)C)C(C#N)=C(N)O2 (centres unmarked) [KDG-0297]	> 5 µM	B″	5 to 10 min	100 to 250 µL/min/mg	
Cc1n[nH]c2c1[C@](c1cc(C#CC3(C(F)(F)F)CN(C(=O)OC(C)(C)C)C3)cc(CO)c1)(C(C)C)C(C#N)=C(N)O2 [KDG-0301]	> 5 µM	A″	≥ 20 min	≤ 70 µL/min/mg	
COC(=O)N1CC(F)(C#Cc2cc(CO)cc([C@@]3(C(C)C)C(C#N)=C(N)Oc4[nH]nc(C)c43)c2)C1 [KDG-0313]	> 5 µM	B″	≥ 20 min	≤ 70 µL/min/mg	

Second part, the compound after the results:

IC50 (HCT116 [1]; Homo sapiens, HCT-116, 96 h)	IC50 (HCT116 [2])	half-life at 2 µM [3]	microsomal CLint at 2 µM [3]	IC50 (HCT116 [1])	Structure (SMILES)
< 0.1 µM	A″	< 5 min	> 250 µL/min/mg		Cc1n[nH]c2c1C(c1cc(C#C[C@H]3CC[C@@H](NC(=O)OC(C)(C)C)CC3)cc(CO)c1)(C(C)C)C(C#N)=C(N)O2 (some centres unmarked) [KDG-0321]
	A″	5 to 10 min	100 to 250 µL/min/mg		Cc1n[nH]c2c1C(c1cc(C#CC3CN(C(=O)OC(C)(C)C)C3)cc(CF)c1)(C(C)C)C(C#N)=C(N)O2 (centres unmarked) [KDG-0345]
	A″			> 5 µM	Cc1n[nH]c2c1C(c1cc(C#C[C@H]3C[C@@H](NC(=O)OC(C)(C)C)C3)cc(CO)c1)(C(C)C)C(C#N)=C(N)O2 (stereo partly drawn) [KDG-0388-0pk2, tert-butyl N-[(1s,3s)-3-(2-[3-[(4R)-6-amino-5-cyano-4-isopropyl-3-methyl-1H-pyrano[2,3-c]pyrazol-4-yl]-5-(hydroxymethyl)phenyl]ethynyl)cyclobutyl]carbamate]
< 0.1 µM	D″				Cc1n[nH]c2c1[C@](c1cc(C#C[C@H]3C[C@@H](NC(=O)OC(C)(C)C)C3)cc(CO)c1)(C(C)C)C(C#N)=C(N)O2 [KDG-0388-Opk1, tert-butyl N-[(1s,3s)-3-(2-[3-[(4S)-6-amino-5-cyano-4-isopropyl-3-methyl-1H-pyrano[2,3-c]pyrazol-4-yl]-5-(hydroxymethyl)phenyl]ethynyl)cyclobutyl]carbamate]
> 5 µM	D″	10 to 20 min	70 to 100 µL/min/mg		Cc1n[nH]c2c1C(c1cc(C#CC3CN(C(=O)NC(C)(C)C)C3)cc(CO)c1)(C(C)C)C(C#N)=C(N)O2 (centres unmarked) [KDG-0412]
< 0.1 µM	B″	10 to 20 min	70 to 100 µL/min/mg		[2H]C([2H])(O)c1cc(C#CC2CN(C(=O)OC(C)(C)C)C2)cc(C2(C(C)C)C(C#N)=C(N)Oc3[nH]nc(C)c32)c1 (centres unmarked) [KDG-0413]
< 0.1 µM	A″	10 to 20 min	70 to 100 µL/min/mg		Cc1c[nH]c2c1C(c1cc(CO)cc(-c3ccc(C4CN(C(=O)OC(C)(C)C)C4)cc3)c1)(C(C)C)C(C#N)=C(N)O2 (centres unmarked) [KDG-0453]
< 0.1 µM	C″	≥ 20 min	≤ 70 µL/min/mg		Cc1nnc(N2CC(C#Cc3cc(CO)cc(C4(C(C)C)C(C#N)=C(N)Oc5[nH]nc(C)c54)c3)C2)o1 (centres unmarked) [KDG-0472]
> 5 µM	C″	5 to 10 min	70 to 100 µL/min/mg		Cc1nnc(N2CCC(C#Cc3cc(CO)cc(C4(C(C)C)C(C#N)=C(N)Oc5[nH]nc(C)c54)c3)CC2)o1 (centres unmarked) [KDG-0478]
	B″	< 5 min			Cc1n[nH]c2c1C(c1cc(C#C[C@@H]3CC[C@@H]3CNC(=O)OC(C)(C)C)cc(CO)c1)(C(C)C)C(C#N)=C(N)O2 (some centres unmarked) [KDG-0490]
< 0.1 µM	B″	≥ 20 min	≤ 70 µL/min/mg		Cc1n[nH]c2c1C(c1cc(C#CC34CC(NC(=O)OC(C)(C)C)(C3)C4)cc(CO)c1)(C(C)C)C(C#N)=C(N)O2 (centres unmarked) [KDG-0502, tert-butyl N-[3-[2-(3-[6-amino-5-cyano-4-isopropyl-3-methyl-1H-pyrano[2,3-c]pyrazol-4-yl]-5-(hydroxymethyl)phenyl)ethynyl]bicyclo[1.1.1]pentan-1-yl]carbamate]
	A″	< 5 min			Cc1n[nH]c2c1C(c1cc(C#C[C@H]3CC[C@@H](NC(=O)OC(C)(C)C)C3)cc(CO)c1)(C(C)C)C(C#N)=C(N)O2 (some centres unmarked) [KDG-0505]
	B″	5 to 10 min			Cc1n[nH]c2c1C(c1cc(C#C[C@H]3CC[C@H](NC(=O)OC(C)(C)C)C3)cc(CO)c1)(C(C)C)C(C#N)=C(N)O2 (some centres unmarked) [KDG-0506]
	B″	10 to 20 min			Cc1n[nH]c2c1C(c1cc(C#N)cc(C#CC3CN(C(=O)OC(C)(C)C)C3)c1)(C(C)C)C(C#N)=C(N)O2 (centres unmarked) [KDG-0543]
